Values quoted from earlier work, collected in patent publication US5879680A, “Cloned DNA for synthesizing unique glucocerebrosidase” (The United States of America as represented by the …, priority 1995, dated 1999).

Target: human placental glucocerebrosidase (Homo sapiens, UniProt P04062)
Settings: placental enzyme, reported by Basu et al, J.B.C. 259:1714, 1984

human placental glucocerebrosidase, sequence (P04062 40-536): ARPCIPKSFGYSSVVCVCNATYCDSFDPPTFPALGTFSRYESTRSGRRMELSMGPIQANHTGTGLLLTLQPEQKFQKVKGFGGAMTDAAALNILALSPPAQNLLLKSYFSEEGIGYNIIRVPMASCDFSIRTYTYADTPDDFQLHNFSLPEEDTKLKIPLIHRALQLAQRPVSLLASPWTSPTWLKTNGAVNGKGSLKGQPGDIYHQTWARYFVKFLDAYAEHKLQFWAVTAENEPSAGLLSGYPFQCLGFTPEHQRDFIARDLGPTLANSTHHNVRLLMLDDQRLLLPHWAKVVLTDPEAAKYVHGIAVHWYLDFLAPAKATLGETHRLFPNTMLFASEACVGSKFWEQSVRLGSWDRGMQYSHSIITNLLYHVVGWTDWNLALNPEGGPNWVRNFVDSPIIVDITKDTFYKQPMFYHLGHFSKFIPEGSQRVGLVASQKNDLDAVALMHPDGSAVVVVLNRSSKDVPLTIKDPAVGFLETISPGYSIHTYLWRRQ

Km: 8 mM
SMILES: Cc1cc(=O)oc2cc(O[C@@H]3O[C@H](CO)[C@@H](O)[C@H](O)[C@H]3O)ccc12 [4MUGP, 4-methylumbellifery-β-D-glucopyranoside]
